Experimental data taken from patent publication US8080580B2, “Dioxa-bicyclo[3.2.1]octane-2,3,4-triol derivatives” (Pfizer Inc., priority 2008, dated 2011).
Values joined by “and” are separate entries in the source; they are usually repeats but may differ in a detail not shown here. Equal entries are not always repeated.

Columns and labels:
Male Sprague Dawley rats = assay: In-vivo assay: urinary glucose excretion in rats after oral gavage; details: rat, urine collected for 24 hours
Experimental: Examples 1A and 4A were tested in rats to assess inhibition of glucose transport via urinary glucose excretion. Male Sprague Dawley rats (˜300 g) were singly housed in metabolic cages for urine collection. Rats had access to standard laboratory chow and water ad libitum. Rats (n=2 to 5/group) received vehicle or compound by oral gavage. Dosing solutions were 0.03 mg/mL, 0.3 mg/mL, 0.9 mg/mL, 3 mg/mL, 9 mg/mL and 18 mg/mL for the 0.1 mg/kg, 1 mg/kg, 3 mg/kg, 10 mg/kg, 30 mg/kg and 60 mg/kg doses respectively. Dosing volume was 1 mL/300 g of body weight for all doses. […] The vehicle was 20% v/v PEG400 and 24% v/v hydroxypropyl beta cyclodextrin; HPBCD. Following oral administration, urine was collected for 24 hours. Glucose concentration was measured in urine by UV absorbance spectrophotometry at 340 nm using a Roche Hitachi 917 spectrophotometer (Diamond Diagnostics, Holliston, Mass.). The total amount of glucose excreted in the urine was calculated as the product of urine concentration and urine volume using the formula below: urinary glucose excreted (mg)/200 g body weight=urinary glucose concentration (mg/dL)×urine volume (dL)×200/rat body weight (g). […] Blood (0.1 mL) was collected from the PK satellite group animals at 1, 2, 4, 7, 24 hours postdose to obtain plasma and analyzed by LC-MS/MS.

human SGLT2 = molecular target: T1, human SGLT2 (Homo sapiens, UniProt P31639); assay: SGLT2 functional assay: inhibition of AMG uptake in CHO-FlpIn cells stably expressing human SGLT2; type: cell-based; details: individual runs (Run No.), read-out: hSGLT2 IC50
T1 construct: expressed in transfected cells; host or cells: CHO-FlpIn (Invitrogen)
T1 sequence (P31639 1-672): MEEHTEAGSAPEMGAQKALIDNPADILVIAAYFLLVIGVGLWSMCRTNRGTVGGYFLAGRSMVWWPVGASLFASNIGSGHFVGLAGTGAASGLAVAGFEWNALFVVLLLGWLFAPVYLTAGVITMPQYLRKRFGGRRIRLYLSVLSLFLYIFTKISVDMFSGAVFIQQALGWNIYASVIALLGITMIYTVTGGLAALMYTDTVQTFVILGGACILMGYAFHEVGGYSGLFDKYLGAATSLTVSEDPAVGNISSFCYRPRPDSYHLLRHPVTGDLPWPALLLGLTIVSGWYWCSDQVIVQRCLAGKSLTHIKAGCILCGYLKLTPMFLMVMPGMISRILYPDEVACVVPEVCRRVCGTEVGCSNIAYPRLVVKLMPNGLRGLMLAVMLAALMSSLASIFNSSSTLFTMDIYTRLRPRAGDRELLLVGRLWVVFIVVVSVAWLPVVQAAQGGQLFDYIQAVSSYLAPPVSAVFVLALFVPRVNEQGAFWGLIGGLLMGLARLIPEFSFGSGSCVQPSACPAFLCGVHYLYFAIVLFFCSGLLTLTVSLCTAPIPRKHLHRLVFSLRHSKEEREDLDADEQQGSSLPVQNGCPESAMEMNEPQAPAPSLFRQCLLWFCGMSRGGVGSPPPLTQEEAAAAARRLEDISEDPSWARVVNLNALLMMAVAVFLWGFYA
From the text: The SGLT2 functional assay was designed to detect the inhibition of methyl-alpha-D glucopyranoside (AMG—a non-metabolizable form of glucose) uptake via the SGLT2 transporter. The SGLT2 transporter recovers glucose from the proximal tubules of the kidney; its inhibition results in sugar wasted in the urine. The positive control compound, Phlorizin, is a known inhibitor of glucose uptake for SGLT2 and was used for comparing the high percent effect of SGLT2 inhibition of the test compounds.
CHO-FlpIn (Invitrogen, Carlsbad, Calif.) cells stably expressing human SGLT2 (pcDNA5/FRT) were plated in Iso-TC 96 well plates (Perkin Elmer, Waltham, Mass.) at a density of 100,000 cells/well in 100 microL of growth media (1:1 F-12/DMEM media (Gibco, Carlsbad, Calif.), 10% FBS (Sigma, St. Louis Mo.), 1× Pen/Strep (Gibco, Carlsbad, Calif.), 600 microg/mL Hygromycin (Invitrogen, Carlsbad, Calif.)). Prior to treating with test compound, confluent cells were serum starved for 2 hours at 37° C. in 1:1 F-12/DMEM media, replacing with fresh F-12/DMEM media after 1 hour. […] Cell plates were then incubated for 3 hours at 37° C. for AMG uptake.

Row | Structure (SMILES) | Mean UGE (mg/200 g of body weight) ± SEM (n = 5) (Male Sprague Dawley rats; 10 mg/kg) | IC50 (human SGLT2) | Mean UGE (mg/200 g of body weight) ± SEM (n = 5) (Male Sprague Dawley rats; 0.1 mg/kg) | Mean UGE (mg/200 g of body weight) ± SEM (n = 5) (Male Sprague Dawley rats; 1 mg/kg) | Mean UGE (mg/200 g of body weight) ± SEM (n = 5) (Male Sprague Dawley rats; 3 mg/kg) | Mean UGE (mg/200 g of body weight) ± SEM (n = 5) (Male Sprague Dawley rats; 30 mg/kg) | Mean UGE (mg/200 g of body weight) ± SEM (n = 5) (Male Sprague Dawley rats; 60 mg/kg)
1 | COc1ccc(Cc2cc([C@]34OC[C@](CO)(O3)[C@@H](O)[C@H](O)[C@H]4O)ccc2C)cc1 [Example 1A, (1S,2S,3S,4R,5S)-1-hydroxymethyl-5-[3-(4-methoxy-benzyl)-4-methyl-phenyl]-6,8-dioxa-bicyclo[3.2.1]octane-2,3,4-triol] | 2049 ± 382.2 mg/200 g of body weight | 1610 pM and 1550 pM and 1150 pM and 779 pM and 715 pM and 654 pM | – | – | – | – | –
2 | CCOc1ccc(Cc2cc([C@]34OC[C@](CO)(O3)[C@@H](O)[C@H](O)[C@H]4O)ccc2Cl)cc1 [Example 4A, (1S,2S,3S,4R,5S)-5-[4-chloro-3-(4-ethoxy-benzyl)-phenyl]-1-hydroxymethyl-6,8-dioxa-bicyclo[3.2.1]octane-2,3,4-triol] | 2145 ± 132.3 mg/200 g of body weight | 1270 pM and 816 pM and 570 pM and 922 pM and 1850 pM and 812 pM and 700 pM and 737 pM and 846 pM and 768 pM | 389.0 ± 62.54 mg/200 g of body weight | 1519 ± 52.02 mg/200 g of body weight | 1937 ± 101.1 mg/200 g of body weight | 2554 ± 141.1 mg/200 g of body weight | 2437 ± 116.7 mg/200 g of body weight
